Measured values published in ChEMBL document CHEMBL1136248, “Further SAR studies on novel small molecule inhibitors of the hepatitis C (HCV) NS5B polymerase” (Bioorg Med Chem Lett, 2003).

Molecular target: Genome polyprotein (Hepatitis C virus genotype 1a (isolate 1) (HCV), UniProt P26664)
Assay: Inhibition of Hepatitis C RNA dependent RNA polymerase Nonstructural protein 5B activity.

Sequence of Genome polyprotein (P26664 2421-3011 limits assumed): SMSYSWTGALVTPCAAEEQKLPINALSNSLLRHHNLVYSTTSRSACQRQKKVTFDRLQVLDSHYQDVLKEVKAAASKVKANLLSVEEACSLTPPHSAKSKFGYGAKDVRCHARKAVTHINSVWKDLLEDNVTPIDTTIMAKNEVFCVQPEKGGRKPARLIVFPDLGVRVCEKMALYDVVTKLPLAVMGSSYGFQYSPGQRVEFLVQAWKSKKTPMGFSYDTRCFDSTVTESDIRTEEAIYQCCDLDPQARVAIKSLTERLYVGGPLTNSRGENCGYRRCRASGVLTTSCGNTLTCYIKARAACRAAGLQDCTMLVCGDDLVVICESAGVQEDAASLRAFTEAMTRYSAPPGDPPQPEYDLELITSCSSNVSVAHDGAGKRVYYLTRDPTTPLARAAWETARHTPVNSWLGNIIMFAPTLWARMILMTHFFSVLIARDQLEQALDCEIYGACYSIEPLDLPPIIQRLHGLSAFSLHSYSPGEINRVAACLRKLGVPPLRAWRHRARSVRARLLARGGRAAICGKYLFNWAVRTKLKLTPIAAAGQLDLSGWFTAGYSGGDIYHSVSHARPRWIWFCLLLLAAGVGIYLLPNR

IC50 | SMILES
26 µM | O=C(O)[C@H](Cc1ccccc1)N(Cc1cccc(Br)c1)Cc1ccc(Cl)cc1Cl
31 µM | O=C(O)[C@H](Cc1ccccc1)N(Cc1cccc(Br)c1)C(=O)Nc1ccc(Cl)cc1Cl
3.7 µM | Cc1cc(Cl)ccc1C(=O)N(Cc1cccc(Br)c1)[C@@H](Cc1ccccc1)C(=O)O
30 µM | O=C(O)[C@H](Cc1ccccc1)N(Cc1cccc(Br)c1)C(=O)c1cccc(Cl)c1
31 µM | O=C(O)[C@H](Cc1ccccc1)N(Cc1cccc(Br)c1)S(=O)(=O)c1ccc(Cl)cc1Cl
15 µM | O=C(O)[C@H](Cc1ccccc1)N(Cc1cccc(Br)c1)c1ccc(Cl)cc1Cl
31 µM | O=C(O)[C@H](Cc1ccccc1)N(Cc1cccc(Br)c1)C(=O)c1ccc(Cl)nc1Cl
2.7 µM | O=C(O)[C@H](Cc1ccccc1)N(Cc1cccc(Br)c1)C(=O)c1ccc(Cl)cc1I
10.7 µM | COc1ccc(C(=O)N(Cc2cccc(Br)c2)[C@@H](Cc2ccccc2)C(=O)O)c(OC)c1
13 µM | O=C(O)[C@H](Cc1ccccc1)N(Cc1cccc(Br)c1)C(=O)c1c(Cl)cc(Cl)cc1Cl
5 µM | O=C(O)[C@H](Cc1ccccc1)N(Cc1cccc(Br)c1)C(=O)c1ccc(Cl)cc1Br
3.5 µM | O=C(O)[C@H](Cc1ccccc1)N(Cc1cccc(Br)c1)C(=O)c1ccc(Cl)cc1Cl
10.6 µM | O=C(O)[C@H](Cc1ccccc1)N(Cc1cccc(Br)c1)C(=O)c1ccc(Cl)cc1
31 µM | O=C(O)[C@H](Cc1ccccc1)N(Cc1cccc(Br)c1)C(=O)c1ccccc1Cl
> 50 µM | O=C(O)[C@H](Cc1ccccc1)N(Cc1cccc(Br)c1)C(=O)c1ccccc1
43 µM | O=C(O)[C@H](Cc1ccccc1)N(Cc1cccc(Br)c1)C(=O)c1ccc(F)cc1F
5.9 µM | Cc1ccc(C(=O)N(Cc2cccc(Br)c2)[C@@H](Cc2ccccc2)C(=O)O)c(C)c1
5.6 µM | CCc1cc(Cl)ccc1C(=O)N(Cc1cccc(Br)c1)[C@@H](Cc1ccccc1)C(=O)O
30 µM | O=C(O)[C@H](Cc1ccccc1)N(Cc1cccc(Br)c1)C(=O)c1ccc(Cl)c(Cl)c1
11 µM | COc1cc(Cl)ccc1C(=O)N(Cc1cccc(Br)c1)[C@@H](Cc1ccccc1)C(=O)O
